How the values were obtained:
Type in all cases: functional
Mus musculus [1] = experiment: Percent packed cell volume at 10 mg/kg per day per mouse; parameters: unit not given here
Mus musculus [2] = experiment: Effect on Ehrlich ascites carcinoma growth in CF1 mice at 10 mg/kg per day ip survival at day 9; 8/8; settings: route intraperitoneal
Mus musculus [3] = experiment: Effect on P-388 lymphocytic leukemia growth at a given dose 10 mg/kg per day ip expressed as average survival days of treated mice; settings: route intraperitoneal
Mus musculus [4] = experiment: Effect on P-388 lymphocytic leukemia growth at a given dose 10 mg/kg per day ip expressed as ratio of treated / control (T/C>125 is required for significant activity); settings: route intraperitoneal
Mus musculus [5] = experiment: Percent inhibition of Ehrlich ascites carcinoma growth at 10 mg/kg per day
Mus musculus [6] = experiment: Percent packed cell volume at 10 mg/kg per day
Mus musculus [7] = experiment: Effect on Ehrlich ascites carcinoma growth in CF1 mice at 10 mg/kg per day ip survival at day 9; 6/6; settings: route intraperitoneal
Mus musculus [8] = experiment: Effect of compound on P-388 lymphocytic leukemia growth at a given dose 15 mg/kg per day ip expressed as average survival days of treated mice; settings: route intraperitoneal
Mus musculus [9] = experiment: Effect of compound on P-388 lymphocytic leukemia growth at a given dose 15 mg/kg per day ip expressed as ratio of treated / control (T/C>125 is required for significant activity); settings: route intraperitoneal
Mus musculus [10] = experiment: Effect of compound on P-388 lymphocytic leukemia growth at a given dose 10 mg/kg per day ip expressed as ratio of treated / control; settings: route intraperitoneal
Mus musculus [11] = experiment: Effect of compound on P-388 lymphocytic leukemia growth at a given dose 4 mg/kg per day ip expressed as average survival days of treated mice; settings: route intraperitoneal
Mus musculus [12] = experiment: Effect of compound on P-388 lymphocytic leukemia growth at a given dose 12.50 mg/kg per day ip expressed as ratio of treated / control (T/C>125 is required for significant activity); settings: route intraperitoneal
Mus musculus [13] = experiment: Effect of compound on P-388 lymphocytic leukemia growth at a given dose 2.5 mg/kg per day ip expressed as average survival days of treated mice; settings: route intraperitoneal
Mus musculus [14] = experiment: Effect of compound on P-388 lymphocytic leukemia growth at a given dose 5 mg/kg per day ip expressed as average survival days of treated mice; settings: route intraperitoneal
Mus musculus [15] = experiment: Effect of compound on P-388 lymphocytic leukemia growth at a given dose 6.25 mg/kg per day ip expressed as ratio of treated / control (T/C>125 is required for significant activity); settings: route intraperitoneal
Mus musculus [16] = experiment: Effect of compound on P-388 lymphocytic leukemia growth at a given dose 25 mg/kg per day ip expressed as ratio of treated / control (T/C>125 is required for significant activity); settings: route intraperitoneal
Mus musculus [17] = experiment: Effect of compound on P-388 lymphocytic leukemia growth at a given dose 5 mg/kg per day ip expressed as ratio of treated / control (T/C>125 is required for significant activity); settings: route intraperitoneal
Mus musculus [18] = experiment: Effect of compound on P-388 lymphocytic leukemia growth at a given dose 10 mg/kg per day ip expressed as ratio of treated / control (T/C>125 is required for significant activity); settings: route intraperitoneal
Mus musculus [19] = experiment: Effect of compound on P-388 lymphocytic leukemia growth at a given dose 15 mg/kg per day ip expressed as ratio of treated / control; settings: route intraperitoneal
Mus musculus [20] = experiment: Effect of compound on P-388 lymphocytic leukemia growth at a given dose 15 mg/kg per dayip expressed as average survival days of treated mice
Mus musculus [21] = experiment: Effect of compound on Ehrlich ascites carcinoma growth in CF1 mice at a dose ((20 mg/kg)/day) ip survival at day 9 packed cell volume as a percent
Mus musculus [22] = experiment: Effect of compound on Ehrlich ascites carcinoma growth in CF1 mice at 20 mg/kg per day ip survival at day 9; 8/8; settings: route intraperitoneal
Mus musculus [23] = experiment: Effect of compound on Ehrlich ascites carcinoma growth in CF1 mice at a dose ((20 mg/kg)/day) ip survival at day 9 packed cell volume
Mus musculus [24] = experiment: Effect of compound on P-388 lymphocytic leukemia growth at a given dose 25 mg/kg per day ip expressed as average survival days of treated mice; settings: route intraperitoneal

Structure (SMILES)	Volume (Mus musculus [1])	Survivors at day 9 (Mus musculus [2])	Days (Mus musculus [3])	inhibition in vivo at 10 mg/kg/day (Mus musculus [5]) [%]	% (Mus musculus [6])	Survivors at day 9 (Mus musculus [7])	further results
O=C1C(CCl)=C(CCl)C(=O)c2ccccc21	0.31	8	12.2	98.8	5		T/C (Mus musculus [4]): 128
O=C1C(CN(CCCl)CCCl)=CS(=O)(=O)c2ccccc21	0.01			99.9	2	6	
CCC(=O)OCC1=CS(=O)(=O)c2ccccc2C1=O	0.23			99.5	0.07	6	
O=C(OCC1=CS(=O)(=O)c2ccccc2C1=O)c1ccccc1	2.7	8		0	33.7		
O=C1C(COC(=O)N(C(=O)Nc2ccccc2)c2ccccc2)=CS(=O)(=O)c2ccccc21	0.58			69.3	38	6	
O=C1c2ccccc2S(=O)(=O)CC1CCl (configuration not stated)	1.84	8		36.3	43.5		Days (Mus musculus [8]): 10; T/C (Mus musculus [9]): 105
O=C1C(CNc2ccccc2)=CS(=O)(=O)c2ccccc21	2.8	8		0	40.2		
O=C1C(Br)=C(c2ccccc2)S(=O)(=O)c2ccccc21	4.06	8	11.4	0.4	30.6		T/C (Mus musculus [10]): 120
COCCOCC1=CS(=O)(=O)c2ccccc2C1=O	0.07			98.2	8.2	6	
CC(C)OCC1=CS(=O)(=O)c2ccccc2C1=O	0.28		11.6	99.2	3.19	6	T/C (Mus musculus [4]): 122
O=C1C(CBr)=CS(=O)(=O)c2ccccc21	0.35	8	10	92.8	8.63		T/C (Mus musculus [4]): 105
O=C1C(CI)=CS(=O)(=O)c2ccccc21	0.15			98	9.57	6	
CCCOCC1=CS(=O)(=O)c2ccccc2C1=O	0.12			99.9	0.19	6	
CCNC(=O)OCC1=CS(=O)(=O)c2ccccc2C1=O	0.38			99.3	1.33	6	
O=c1cc[s+]([O-])c2ccccc12 (configuration not stated)	0.27			89.6	27.8	6	
O=COCC1=CS(=O)(=O)c2ccccc2C1=O	0.57			91.6	4.23	6	
COCC1=CS(=O)(=O)c2ccccc2C1=O	0.1	8	12	99.9	0.1		T/C (Mus musculus [4]): 126
CC(=O)OCC1=CS(=O)(=O)c2ccccc2C1=O	0.33	8	6.6	99.5	2		Days (Mus musculus [11]): 11.3; T/C (Mus musculus [12]): 118; Days (Mus musculus [13]): 10.2; Days (Mus musculus [14]): 11.6; T/C (Mus musculus [4]): 69; T/C (Mus musculus [15]): 107; T/C (Mus musculus [16]): 122
CCOCC1=CS(=O)(=O)c2ccccc2C1=O	0.54	8	12.2	92.4	17.8		Days (Mus musculus [8]): 9.6; Days (Mus musculus [14]): 10.4; T/C (Mus musculus [17]): 109; T/C (Mus musculus [9]): 101; T/C (Mus musculus [18]): 128
O=C1C(COCCCl)=CS(=O)(=O)c2ccccc21	0.07			98.1	7.93	6	
O=C1C(CN2CCOCC2)=CS(=O)(=O)c2ccccc21	1.25	8		0	43.3		
O=C1C(COCCBr)=CS(=O)(=O)c2ccccc21	0.05	8		100	0		
CC1=C(Br)C(=O)c2ccccc2S1(=O)=O	2.82	8		22.8	34.3		Days (Mus musculus [8]): 10.2; T/C (Mus musculus [9]): 107
O=C1C=CS(=O)(=O)c2ccccc21	2.78	8	11.4	5.5	42.6		T/C (Mus musculus [4]): 120
O=C1C(Br)=CS(=O)(=O)c2ccccc21	0.99	8	12.4	69.9	38.3		T/C (Mus musculus [10]): 130; T/C (Mus musculus [19]): 99; Days (Mus musculus [20]): 9.4
O=C1C(CBr)=C(CBr)S(=O)(=O)c2ccccc21	0.76	8	10.3	53.9	37.2		% (Mus musculus [21]): 25.2; Inhibition (Mus musculus [21]): 69.9%; Survivors at day 9 (Mus musculus [22]): 8; Volume (Mus musculus [23]): 0.99; T/C (Mus musculus [4]): 108
Cc1sc2ccccc2c(=O)c1CBr	2.1	8	11.4	25.8	42.7		T/C (Mus musculus [4]): 120
O=c1[nH]cc(F)c(=O)[nH]1 [FLUOROURACIL]							Days (Mus musculus [24]): 17.6; T/C (Mus musculus [16]): 186

Source: ChEMBL document CHEMBL1121661, “Synthesis and antitumor activity of a series of sulfone analogues of 1,4-naphthoquinone” (1981)
